Columns and labels:
[1] = target: T1, aggregated alpha-synuclein (human recombinant) (Homo sapiens, UniProt P37840); assay: Thiazine-red fluorescence displacement assay on aggregated alpha-synuclein; settings: displacement of Thiazin-red at the high affinity binding site; compound 0.3 nM to 10000 nM; 30 min room temperature; average of different experiments; read-out: aggr. α-syn IC50
T1 construct: made in house; host or cells: E. coli
Experimental: Human recombinant-Alpha-synuclein-purified from E. coli is aggregated with Arachidonic Acid (100 μM) in Tris 10 mM pH 8, for 5 days at 37° C., under shaking at 150 rpm.
Thiazin-red will be added at the concentration corresponding to the Kd to the respective aggregated protein binding site, to induce a fluorescent signal that can be inhibited by the addition of a displacer compound
In parallel, auto fluorescence of the compound is measured together with the aggregated proteins, but without Thiazin-red. As negative control, ligand and aggregated protein is used and as positive control, Thiazin-red, reference compound with known activity and aggregated protein is used.
Assay is performed in Perkin Elmer OptiPlate 384, black, 45 ul assay volume, assay buffer is DPBS no CaCl2 no MgCl2 (GIBCO N. 14020). Tested compounds are diluted in DMSO and 2 μl is added to the assay (5% DMSO final). Assay is started by the addition of the aggregated protein (competitive condition). Plates are shortly shacked (1 min with Sterico variomag teleshake) and incubated for 30 min at room temperature. Measurement are done with En:Vision (Perkin Elmer), at Excitation 531 nm/Emission 595 nm.

[2] = target: T2, aggregated Tau (recombinant human microtubule associated protein Tau) (Homo sapiens, UniProt P10636); assay: Thiazine-red fluorescence displacement assay on aggregated tau; settings: displacement of Thiazin-red at the high affinity binding site; compound 0.3 nM to 10000 nM; 30 min room temperature; average of different experiments; read-out: aggr. TAU IC50
T2 construct: made in house; host or cells: E. coli
Experimental: (§1) Recombinant human-microtubule associated protein Tau purified from E. coli is aggregated at a concentration of 5 μM with Arachidonic Acid (100 μM) in Tris 10 mM pH8, 24h at 37° C. Synthetic Aβ40 is aggregated with Arachidonic Acid (100 μM) in Tris 10 mM pH8, for three days at 37° C., under shaking at 150 rpm. […] In parallel, auto fluorescence of the compound is measured together with the aggregated proteins, but without Thiazin-red. As negative control, ligand and aggregated protein is used and as positive control, Thiazin-red, reference compound with known activity and aggregated protein is used. Assay is performed in Perkin Elmer OptiPlate 384, black, 45 ul assay volume, assay buffer is DPBS no CaCl2 no MgCl2 (GIBCO N. 14020). Tested compounds are diluted in DMSO and 2 μl is added to the assay (5% DMSO final). Assay is started by the addition of the aggregated protein (competitive condition). Plates are shortly shacked (1 min with Sterico variomag teleshake) and incubated for 30 min at room temperature. Measurement are done with En:Vision (Perkin Elmer), at Excitation 531 nm/Emission 595 nm.

[3] = target: T3, aggregated Aβ40 (synthetic) (Homo sapiens, UniProt P05067); assay: Thiazine-red fluorescence displacement assay on aggregated Aβ40; settings: displacement of Thiazin-red at the high affinity binding site; compound 0.3 nM to 10000 nM; 30 min room temperature; average of different experiments; read-out: aggr. Aβ40 IC50
T3 construct: Id; No. 4; host or cells: synthetic peptide
Experimental: as §1

T3 sequence (P05067 672-711): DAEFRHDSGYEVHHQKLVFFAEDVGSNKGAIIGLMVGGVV
T2 sequence (P10636 1-441 isoform P10636-8): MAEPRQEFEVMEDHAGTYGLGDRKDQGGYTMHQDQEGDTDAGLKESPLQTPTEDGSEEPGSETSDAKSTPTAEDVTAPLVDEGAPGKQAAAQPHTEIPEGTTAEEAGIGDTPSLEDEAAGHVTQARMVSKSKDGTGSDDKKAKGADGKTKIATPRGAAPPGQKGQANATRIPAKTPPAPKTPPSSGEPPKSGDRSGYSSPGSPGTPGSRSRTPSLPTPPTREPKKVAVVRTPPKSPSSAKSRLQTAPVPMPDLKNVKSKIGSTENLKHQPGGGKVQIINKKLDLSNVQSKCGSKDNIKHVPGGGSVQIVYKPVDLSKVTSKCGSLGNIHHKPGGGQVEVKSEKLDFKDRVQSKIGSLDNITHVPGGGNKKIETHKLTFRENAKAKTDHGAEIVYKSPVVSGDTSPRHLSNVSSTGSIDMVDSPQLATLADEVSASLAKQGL

## O=C(O)c1cc(/C=C/c2ccc(/C=C/c3ccc(O)c(C(=O)O)c3)c(Br)c2)ccc1O [BSB]
[1]
  IC50: 0.0363 µM
[2]
  IC50: 0.0184 µM
[3]
  IC50: 0.0784 µM

## CN(C)c1ccc(C(=C2C=CC(=[N+](C)C)C=C2)c2ccc(N(C)C)cc2)cc1 [Crystal Violet]
[1]
  IC50: 1.72 µM
[2]
  IC50: 1.55 µM
[3]
  IC50: 1.28 µM

## CNc1ccc(-c2ccc3ccccc3n2)cc1 [BF-158]
[1]
  IC50: > 10 µM
[2]
  IC50: > 10 µM
[3]
  IC50: > 10 µM

## CNc1ccc(-c2nc3ccc(O)cc3s2)cc1 [PIB]
[1]
  IC50: 7.02 µM
[2]
  IC50: 3.26 µM

## COc1cc(/C=C/c2ccc(O)cc2)ccc1/C=C/c1ccc(O)cc1 [MeXO4]
[1]
  IC50: 0.239 µM
[2]
  IC50: 0.494 µM
[3]
  IC50: 0.307 µM

## CC(=C(C#N)C#N)c1ccc2cc(N(C)CCF)ccc2c1 [FDDNP]
[1]
  IC50: 1.18 µM
[2]
  IC50: 1.64 µM
[3]
  IC50: 1.47 µM

## CNc1ccc(-c2nc3ccc(O)cc3s2)cn1 [AZD2184]
[1]
  IC50: > 10 µM
[2]
  IC50: 9.8 µM
[3]
  IC50: > 10 µM

## Cc1cc(-c2ccc(/N=N/c3ccc4c(S(=O)(=O)O)cc(S(=O)(=O)O)c(N)c4c3O)c(C)c2)ccc1/N=N/c1ccc2c(S(=O)(=O)O)cc(S(=O)(=O)O)c(N)c2c1O [Evans Blue]
[1]
  IC50: 0.0076 µM
[2]
  IC50: 0.001 µM
[3]
  IC50: 0.0888 µM

## Nc1c(/N=N/c2ccc(-c3ccc(/N=N/c4cc(S(=O)(=O)O)c5ccccc5c4N)cc3)cc2)cc(S(=O)(=O)O)c2ccccc12 [Congo Red]
[1]
  IC50: 0.0044 µM
[2]
  IC50: 0.0054 µM
[3]
  IC50: 0.0136 µM

## CN(C)c1ccc(-c2cn3cc(I)ccc3n2)cc1 [IMPY]
[1]
  IC50: 5.7 µM
[2]
  IC50: 2.71 µM

Source: patent publication US20140363898A1, “METHOD FOR THE IDENTIFICATION OF BETA-SHEET AGGREGATED PROTEIN LIGANDS” (Hoffmann-La Roche Inc., priority 2011, published 2014)
